Data reported in ChEMBL document CHEMBL4138283, “Cyclizidine-Type Alkaloids from Streptomyces sp. HNA39” (J Nat Prod, 2018).

Assays:
[1] = target: Rho-associated protein kinase 2 (Homo sapiens, UniProt O75116); assay: Inhibition of ROCK2 (unknown origin) using SKT S2 as substrate measured after 30 mins by HTRF assay
PC-3 = assay: Cytotoxicity against human PC3 cells by sulforhodamine B assay; assay type: functional, cell-based
HCT-116 = assay: Cytotoxicity against human HCT116 cells by sulforhodamine B assay; assay type: functional, cell-based

Sequence of Rho-associated protein kinase 2 (O75116 whole entry): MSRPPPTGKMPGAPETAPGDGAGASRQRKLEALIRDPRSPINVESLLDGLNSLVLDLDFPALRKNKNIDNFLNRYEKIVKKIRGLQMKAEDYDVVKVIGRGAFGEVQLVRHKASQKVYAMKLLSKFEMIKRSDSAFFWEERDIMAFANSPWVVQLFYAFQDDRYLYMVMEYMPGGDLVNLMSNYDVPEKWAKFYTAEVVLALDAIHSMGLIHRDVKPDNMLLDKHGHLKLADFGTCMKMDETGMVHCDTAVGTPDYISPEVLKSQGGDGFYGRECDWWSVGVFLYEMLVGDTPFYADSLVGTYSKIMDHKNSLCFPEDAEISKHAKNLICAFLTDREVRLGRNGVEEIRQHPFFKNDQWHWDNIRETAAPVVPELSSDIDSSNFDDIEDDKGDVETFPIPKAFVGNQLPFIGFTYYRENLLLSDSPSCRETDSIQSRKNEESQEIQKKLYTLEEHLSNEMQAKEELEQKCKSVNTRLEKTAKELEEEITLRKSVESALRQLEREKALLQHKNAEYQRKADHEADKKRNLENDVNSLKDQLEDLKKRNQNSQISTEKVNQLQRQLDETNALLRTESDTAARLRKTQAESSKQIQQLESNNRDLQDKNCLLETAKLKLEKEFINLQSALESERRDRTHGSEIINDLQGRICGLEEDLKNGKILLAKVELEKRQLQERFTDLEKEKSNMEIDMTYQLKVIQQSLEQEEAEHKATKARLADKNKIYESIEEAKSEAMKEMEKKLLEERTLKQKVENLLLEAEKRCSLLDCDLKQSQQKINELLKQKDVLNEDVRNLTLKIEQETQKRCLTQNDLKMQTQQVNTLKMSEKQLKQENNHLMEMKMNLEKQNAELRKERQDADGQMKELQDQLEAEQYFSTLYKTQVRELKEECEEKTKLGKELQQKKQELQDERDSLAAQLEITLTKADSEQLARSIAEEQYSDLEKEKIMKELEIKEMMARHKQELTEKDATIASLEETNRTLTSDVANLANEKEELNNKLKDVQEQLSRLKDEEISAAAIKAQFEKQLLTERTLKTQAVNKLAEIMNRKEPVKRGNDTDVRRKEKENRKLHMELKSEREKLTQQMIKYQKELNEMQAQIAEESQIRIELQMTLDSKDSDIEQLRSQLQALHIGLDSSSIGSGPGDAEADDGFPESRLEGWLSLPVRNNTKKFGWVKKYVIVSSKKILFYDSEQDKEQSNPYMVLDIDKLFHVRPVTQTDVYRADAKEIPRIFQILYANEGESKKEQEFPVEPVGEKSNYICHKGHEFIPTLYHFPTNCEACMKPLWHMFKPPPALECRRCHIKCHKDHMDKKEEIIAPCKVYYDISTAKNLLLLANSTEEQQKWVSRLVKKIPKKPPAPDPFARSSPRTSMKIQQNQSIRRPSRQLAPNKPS

Row | IC50 [1] | Compound | IC50 (PC-3) | IC50 (HCT-116)
1 | 42 µM | C/C(=C\C=C\CCO)C[C@H]1[C@H](O)[C@@](C)(O)[C@H]2[C@H](O)[C@@H](Cl)CCN12 | 17 µM | > 40 µM
2 | > 100 µM | CC(/C=C/C1CC1)=C\[C@H]1[C@H](O)[C@@](C)(O)[C@H]2[C@@H]3O[C@@H]3CCN12 | 23 µM | 28 µM
3 | > 100 µM | C/C(=C\C=C\CCO)C[C@H]1[C@H](O)[C@@](C)(O)[C@H]2CCCCN12 | > 40 µM | > 40 µM
4 | > 100 µM | CC(/C=C/C1CC1)=C\[C@H]1[C@H](O)[C@@](C)(O)[C@H]2[C@H](O)[C@@H](Cl)CCN12 | 33 µM | 40 µM
5 | 7 µM | CC(/C=C/C1CC1)=C\[C@H]1[C@H](O)[C@@](C)(O)[C@H]2[C@H](O)[C@@H](O)CCN12 | 0.52 µM | 8.3 µM
6 | 39 µM | C/C(=C/C=C/CCO)C[C@H]1[C@H](O)[C@@](C)(O)[C@H]2[C@H](O)[C@@H](Cl)CCN12 | > 40 µM | > 40 µM
7 | 27 µM | CC(/C=C/C1CC1)=C\[C@H]1[C@H](O)[C@@](C)(O)c2c(O)ccc[n+]21 | > 40 µM | > 40 µM
8 | – | CN[C@@H]1C[C@H]2O[C@@](C)([C@@H]1OC)n1c3ccccc3c3c4c(c5c6ccccc6n2c5c31)C(=O)NC4 [STAUROSPORINE] | 0.017 µM | –
9 | > 100 µM | CC(/C=C/C1CC1)=C\[C@H]1[C@H](O)[C@@](C)(O)[C@H]2CCCCN12 | > 40 µM | > 40 µM
10 | > 100 µM | CC(/C=C/C1CC1)=C\[C@H]1[C@H](O)[C@@](C)(O)c2cccc[n+]21 | > 40 µM | > 40 µM
